Test results from patent US20220213047A1, “CARBONIC ANHYDRASE INHIBITORS FOR TREATMENT OF NEISSERIA GONORRHOEAE INFECTION” (Purdue Research Foundation, priority 2021, published 2022).
≈ marks a conversion by molar mass, not a printed value.

What was measured:
N. gonorrhoeae [1] = assay: MIC against N. gonorrhoeae clinical isolates, normal and CO2 conditions; assay type: cell-based; settings: Neisseria gonorrhoeae
Description: (§1) These tests were performed in normal culture conditions with standard CO2 levels and in CO2 (5% in incubator) conditions.

ATCC strain 700825 = assay: MICs against ATCC strain 700825; assay type: cell-based, N. gonorrhoeae; settings: Neisseria gonorrhoeae
Description: as §1

N. gonorrhoeae [2] = assay: Multi-step resistance selection; assay type: cell-based; settings: after 9 passages
Source text: Frequency of mutation—multi-step mutation—We investigated N. gonorrhoeae's ability to develop resistance to CAIs using the multi-step resistance selection experiment^58.
N. gonorrhoeae cultures that grew at the highest concentrations of the compound are used as an inoculum for the subsequent culture.

[3] = test system: intracellular N. gonorrhoeae; assay: Intracellular clearance of N. gonorrhoeae in infected endocervical cells (End1/E6E7); assay type: cell-based; settings: 5×MIC, 24 hours
Source text: Intracellular clearance of N. gonorrhoeae—N. gonorrhoeae is known to invade epithelial cells of the genital tract and cross the epithelial barrier into the subepithelial space^59. Previous studies have shown that N. gonorrhoeae can survive inside host cells and pass epithelial cell layers (a key step in causing disseminated infections)^60,61. Therefore, a drug candidate must also be able to kill intracellular N. gonorrhoeae in order to be an effective therapeutic. Also, we were concerned that CAIs have reduced activity in high-CO2 conditions and may not be suitable to treat intracellular infection. Thus, we examined CAIs ability to reduce the burden of intracellular N. gonorrhoeae present in infected endocervical cells^56.

[4] = N. gonorrhoeae 178, Non CO2 environment
[5] = N. gonorrhoeae 178, normal growth environment (with CO2)
[6] = N. gonorrhoeae 181, Non CO2 environment
[7] = N. gonorrhoeae 181, normal growth environment (with CO2)
[8] = N. gonorrhoeae 194, Non CO2 environment
[9] = N. gonorrhoeae 194, normal growth environment (with CO2)

| SMILES | MIC (N. gonorrhoeae [1]; [4]) | MIC (N. gonorrhoeae [1]; [5]) | MIC (N. gonorrhoeae [1]; [6]) | MIC (N. gonorrhoeae [1]; [7]) | MIC (N. gonorrhoeae [1]; [8]) | MIC (N. gonorrhoeae [1]; [9]) | MIC (ATCC strain 700825; ATCC700825, In CO2) | MIC (ATCC strain 700825; ATCC700825, In air) | increase in MIC (N. gonorrhoeae [2]) | reduction in N. gonorrhoeae inside infected endocervical cells [3] |
| --- | --- | --- | --- | --- | --- | --- | --- | --- | --- | --- |
| CCCCCCC(=O)Nc1nnc(S(N)(=O)=O)s1 [CAI 0027] | 2 µg/mL (≈ 6.84 µM) | 32 µg/mL (≈ 109 µM) | 2 µg/mL (≈ 6.84 µM) | 64 µg/mL (≈ 219 µM) | 1 µg/mL (≈ 3.42 µM) | 64 µg/mL (≈ 219 µM) |  |  |  |  |
| CC(C)(C)CC(=O)Nc1nnc(S(N)(=O)=O)s1 [CAI 0028] | 8 µg/mL (≈ 28.7 µM) | 32 µg/mL (≈ 115 µM) | 16 µg/mL (≈ 57.5 µM) | 64 µg/mL (≈ 230 µM) | 32 µg/mL (≈ 115 µM) | 64 µg/mL (≈ 230 µM) |  |  |  |  |
| NS(=O)(=O)c1nnc(NC(=O)CC2CCCCC2)s1 [CAI 0029] | 1 µg/mL (≈ 3.29 µM) | 32 µg/mL (≈ 105 µM) | 0.5 µg/mL (≈ 1.64 µM) | > 64 µg/mL | 2 µg/mL (≈ 6.57 µM) | > 64 µg/mL |  |  |  |  |
| CC(=O)Nc1ccc(S(N)(=O)=O)cc1 [CAI 0030] | 8 µg/mL (≈ 37.3 µM) | > 64 µg/mL | 32 µg/mL (≈ 149 µM) | > 64 µg/mL | 16 µg/mL (≈ 74.7 µM) | > 64 µg/mL |  |  |  |  |
| NS(=O)(=O)c1nnc(NC(=O)CN2CCOCC2)s1 [CAI 0031] | 32 µg/mL (≈ 104 µM) | 64 µg/mL (≈ 208 µM) | > 64 µg/mL | > 64 µg/mL | 64 µg/mL (≈ 208 µM) | > 64 µg/mL | 128 µg/mL (≈ 416 µM) | 32 µg/mL (≈ 104 µM) |  |  |
| CCNc1nnc(S(N)(=O)=O)s1 [CAI 0032] | 64 µg/mL (≈ 307 µM) | > 64 µg/mL | > 64 µg/mL | > 64 µg/mL | > 64 µg/mL | > 64 µg/mL |  |  |  |  |
| Nc1nnc(S(N)(=O)=O)s1 [CAI 0034] | 1 µg/mL (≈ 5.55 µM) | > 64 µg/mL | 4 µg/mL (≈ 22.2 µM) | > 64 µg/mL | 2 µg/mL (≈ 11.1 µM) | > 64 µg/mL |  |  |  |  |
| NS(=O)(=O)c1nnc(NC(=O)CN2CCCCC2)s1 [CAI 0035] | 64 µg/mL (≈ 210 µM) | > 64 µg/mL | > 64 µg/mL | > 64 µg/mL | 64 µg/mL (≈ 210 µM) | > 64 µg/mL |  |  |  |  |
| CN1CCN(CC(=O)Nc2nnc(S(N)(=O)=O)s2)CC1 [CAI 0036] | 64 µg/mL (≈ 200 µM) | > 64 µg/mL | > 64 µg/mL | > 64 µg/mL | > 64 µg/mL | > 64 µg/mL |  |  |  |  |
| NS(=O)(=O)c1nnc(NC(=O)CN2CCCC2)s1 [CAI 0037] | > 64 µg/mL | > 64 µg/mL | > 64 µg/mL | > 64 µg/mL | > 64 µg/mL | > 64 µg/mL |  |  |  |  |
| NS(=O)(=O)c1nnc(NC(=O)c2cccc(C(F)(F)F)c2)s1 [CAI 0038] | 1 µg/mL (≈ 2.84 µM) | > 64 µg/mL | 4 µg/mL (≈ 11.4 µM) | 64 µg/mL (≈ 182 µM) | 2 µg/mL (≈ 5.68 µM) | > 64 µg/mL |  |  |  |  |
| NS(=O)(=O)c1nnc(NC(=O)CC2CC2)s1 [CAI 0040] |  |  |  |  |  |  | 32 µg/mL (≈ 122 µM) | 16 µg/mL (≈ 61 µM) |  |  |
| NS(=O)(=O)c1nnc(NC(=O)CCc2ccccc2)s1 [CAI 0041] |  |  |  |  |  |  | 4 µg/mL (≈ 12.8 µM) | 0.5 µg/mL (≈ 1.6 µM) |  |  |
| O=C(O)c1cn(C2CC2)c2cc(N3CCNCC3)c(F)cc2c1=O [Ciprofloxacin] |  |  |  |  |  |  |  |  | 300 fold |  |
| CCN[C@H]1C[C@H](C)S(=O)(=O)c2sc(S(N)(=O)=O)cc21 [Dorzolamide] | 32 µg/mL (≈ 98.6 µM) | > 64 µg/mL | > 64 µg/mL | > 64 µg/mL | > 64 µg/mL | > 64 µg/mL |  |  |  |  |
| CO/N=C(\C(=O)N[C@@H]1C(=O)N2C(C(=O)O)=C(CSc3nc(=O)c(=O)[nH]n3C)CS[C@H]12)c1csc(N)n1 [ceftriaxone] |  |  |  |  |  |  |  |  |  | 0.32 log10 |
